Experimental data as given in patent US11485697B2, “Antimalarial compositions and uses thereof” (THE SCRIPPS RESEARCH INSTITUTE, priority 2016, dated 2022).

How the values were obtained:
[1] = system: sporozoites; assay: Sporozoite challenge at day 14 following IM administration of Compound 2 (percent protection, FIG. 2A); assay type: in vivo, mouse; details: IM Compound 2
Procedure: The exposure is not highly variable between animals in a given group. The Ctrough is about 83±32 nM for animals that are protected from infection.

[2] = Dog PK, crystalline compound 2 suspension injected intramuscularly (Table 24A); assay type: in vivo; design: Clast: unit not given here; details: plasma analyte = labelled substance; for half-life / plasma exposure (in words): after IM crystalline Compound 2 10 mg/kg suspension
Procedure: Compound 2 was dosed in dog at 10 mg/kg (Injection volume: 0.5 mL/kg). The material was formulated as a 20 mg/mL suspension in 3% TPGS and 1% HPMC E5. […] Half-life of ELQ-300 was about […] as that of compound 2 (205 and 124 respectively).

[3] = Key in vitro ADME for Compound 2 (Table 36); details: for half-life: read-out: Hepatocyte T1/2
[4] = Atovaquone plasma concentration following PO administration of Compound 27 (Table 29); assay type: in vivo, mice; details: Compound 27, PO; 28 d
Procedure: Animals (Male CD-1 mice, 7-9 weeks) were obtained from an approved vendor (SLAC Laboratory Animal Co. Ltd., Shanghai, China; or SIPPR-B&K Laboratory Animal Co. Ltd., Shanghai, China).
Animals were fasted at least 12 hours prior to the administration. All animals had access to Certified Rodent Diet (Catalog #M01-F, SLAC Laboratory Animal Cl. Ltd., Shanghai, China) ad libitum 4 hours post dosing.
Appropriate amount of test compound was accurately weighed and mixed with appropriate volume of vehicle to get a clear solution or a uniform suspension, vortexing or sonication in water bath was sometimes needed. The formulations were prepared on the day of dosing. Animals were dosed within four hours after the formulation was prepared. Two 20 μL aliquots of each formulation were removed from each of the formulation solutions, transferred into 1.5 mL of polypropylene microcentrifuge tubes and run dose validation by LC/UV or LC-MS/MS.
The PO dose formulation was administered via oral gavage following facility SOPs. […]
• Aliquots of the formulations were collected in the middle position of each dose formulation in duplicate. • The concentrations of the test compound in dose formulation samples were determined by the LC/UV or LC/MS/MS method. […]
Plasma concentration versus time data was analyzed by non-compartmental approaches using the Phoenix WinNonlin 6.3 software program. […]

[5] = after IM crystalline Compound 2 10 mg/kg, 20 mg/mL suspension in 3% TPGS, 1% HPMC E5

Compound | Ctrough (ELQ-300) for animals that are protected from infection [1] | half-life [2] [h] | plasma exposure (in words) [2] | AUC(0-inf) [2, 5] [µM·h] | AUC(0-t) [2, 5] [µM·h] | CL/F [2, 5] [mL/min/kg] | Clast [2, 5] | Cmax [2, 5] [nM] | T1/2 [2, 5] | Tmax [2, 5] [h] | half-life ([3]; Dog hepatocytes) [h] | Liver S9 % remaining after 2 hours ([3]; Dog liver S9) [%] | Plasma % remaining after 2 hours ([3]; Dog plasma) [%] | half-life ([3]; Human hepatocytes) [h] | Liver S9 % remaining after 2 hours ([3]; Human liver S9) [%] | Plasma % remaining after 2 hours ([3]; Human plasma) [%] | Plasma % remaining after 2 hours ([3]; Monkey plasma) [%] | Plasma % remaining after 2 hours ([3]; Mouse plasma) [%] | Plasma % remaining after 2 hours ([3]; Rat plasma) [%] | average atovaquone plasma concentration [4]
CCCC(=O)OCOc1c(-c2ccc(Oc3ccc(OC(F)(F)F)cc3)cc2)c(C)nc2cc(OC)c(Cl)cc12 [Compound 2, (6-chloro-7-methoxy-2-methyl-3-(4-(4-(trifluoromethoxy)phenoxy)phenyl)quinolin-4-yloxy)methyl butyrate] | about 83±32 nM | 124 | low but detectable throughout the duration of the study | 18.1 | 16.4 | 14.4 | 4.5 (4.7) | 730 | 124 (34) h | 3 | 0.367 | 47 | 83 | 1.28 | 35 | 82 | 85 | 0 | 0 | –
CCCCCCCCCC(=O)OC1=C(C2CCC(c3ccc(Cl)cc3)CC2)C(=O)c2ccccc2C1=O (stereo not shown) [Compound 27, 3-((1r,4r)-4-(4-chlorophenyl)cyclohexyl)-1,4-dioxo-1,4-dihydronaphthalen-2-yl decanoate] | – | – | – | – | – | – | – | – | – | – | – | – | – | – | – | – | – | – | – | BQL
COc1cc2[nH]c(C)c(-c3ccc(Oc4ccc(OC(F)(F)F)cc4)cc3)c(=O)c2cc1Cl [ELQ-300, 6-chloro-7-methoxy-2-methyl-3-(4-(4-(trifluoromethoxy)phenoxy)phenyl)quinolin-4(1H)-one, reference compound] | – | 205 | several orders of magnitude higher than that of Compound 2 | 1290 | 1140 | 0.23 | – | 4640 | 205 (39) h | 48 | – | – | – | – | – | – | – | – | – | –
